Reference: patent US11560395B2, “Azithromycin derivatives containing a phosphonium ion as anticancer agents” (Rising Tide Foundation, priority 2017, dated 2023)

What follows are compounds tested on MDA-231 cancer cells (assay: Inhibition of proliferation assay, cell confluence (IncuCyte live cell imaging)). Conditions: MDA-231 cells, concentration 10 uM; relative confluence normalised to time zero, images every 3 h over 4-5 d.
Format: cell-based
Description: Inhibition of Proliferation Assay Cell Confluence The confluence value is a surrogate for cell proliferation and growth. The value is expressed as a percent confluence, which represents the fraction of culture dish-surface that is occupied by cells. As the number of cells in the dish increases over time due to proliferation, so will their coverage of that surface increase. Expansion of the cell population on the cell culture-dish surface and confluence have mostly a linear relationship until the cells on the plate surface begin to reach saturation or maximum density. Confluence is determined based on image analysis. Image based software can identify objects in the image field base on changes to pixel density in a grey scale image. The software can then assign a mask to those pixels within the object. Objects can be ‘gated’ out based on size and shape. To determine cell confluence, images of cells are first masked as objects. The surface area of the image that is masked is measured and compared to the total surface area of the culture dish surface to obtain a percent confluence. MDA-231 cancer cells were obtained from ATCC. Cells were cultured in Dulbecco's Modified Eagle Medium (DMEM) supplemented with 10% Fetal Bovine Serum (FBS), 2 mM Glutamax, 1 mM Non Essential Amino Acid (NEAA) solution and 1 mM sodium pyruvate. Compounds were dissolved in DMSO at 10 mM and diluted in cellular medium and tested at 10 μM (micromolar). Final DMSO concentrations were <0.1%. Images were acquired with an IncuCyte Live Cell Imaging microscopy (Essen Bioscience) at every 3 h under cell culture conditions with 10× objective over 4-5 d. Cell confluence was calculated from one field of view per well using the IncuCyte in-built algorithm. Relative confluence values were obtained by normalising each value to the time zero value in each sample.
With `CC[C@H]1OC(=O)[C@H](C)[C@@H](O[C@H]2C[C@@](C)(OC)[C@@H](O)[C@H](C)O2)[C@H](C)[C@@H](O[C@@H]2O[C@H](C)C[C@H](N(C)C)[C@H]2O)[C@](C)(O)C[C@@H](C)CN(C(=O)CCCCCCCCC[P+](c2ccccc2)(c2ccccc2)c2ccccc2)[C@H](C)[C@@H](O)[C@]1(C)O` [Example 2, {10-[(2R,3S,4R,5R,8R,10R,11R,12S,13S,14R)-11-{[(2S,3R,4S,6R)-4-(dimethylamino)-3-hydroxy-6-methyloxan-2-yl]oxy}-2-ethyl-3,4,10-trihydroxy-13-{[(2R,4R,5S,6S)-5-hydroxy-4-methoxy-4,6-dimethyloxan-2-yl]oxy}-3,5,8,10,12,14-hexamethyl-15-oxo-1-oxa-6-azacyclopentadecan-6-yl]-10-oxodecyl}triphenylphosphonium hexafluorophosphate(V)] the “% Confluence” value was 13.4%.
For `CC[C@H]1OC(=O)[C@H](C)[C@@H](O)[C@H](C)[C@@H](O[C@@H]2O[C@H](C)C[C@H](N(C)C)[C@H]2O)[C@](C)(O)C[C@@H](C)CN(C(=O)CCCCCCCCCCC[P+](c2ccccc2)(c2ccccc2)c2ccccc2)[C@H](C)[C@@H](O)[C@]1(C)O` [Example 12, {12-[(2R,3S,4R,5R,8R,10R,11R,12S,13S,14R)-11-{[(2S,3R,4S,6R)-4-(dimethylamino)-3-hydroxy-6-methyloxan-2-yl]oxy}-2-ethyl-3,4,10,13-tetrahydroxy-3,5,8,10,12,14-hexamethyl-15-oxo-1-oxa-6-azacyclopentadecan-6-yl]-12-oxododecyl}triphenylphosphonium hexafluorophosphate(V)], the “% Confluence” value was 6.6%.
In the case of `CC[C@H]1OC(=O)[C@H](C)[C@@H](O[C@H]2C[C@@](C)(OC)[C@@H](O)[C@H](C)O2)[C@H](C)[C@@H](O[C@@H]2O[C@H](C)C[C@H](N(C)C)[C@H]2O)[C@](C)(O)C[C@@H](C)CN(C(=O)CCCCCC[P+](c2ccccc2)(c2ccccc2)c2ccccc2)[C@H](C)[C@@H](O)[C@]1(C)O` [Example 4, {7-[(2R,3S,4R,5R,8R,10R,11R,12S,13S,14R)-11-{[(2S,3R,4S,6R)-4-(dimethylamino)-3-hydroxy-6-methyloxan-2-yl]oxy}-2-ethyl-3,4,10-trihydroxy-13-{[(2R,4R,5S,6S)-5-hydroxy-4-methoxy-4,6-dimethyloxan-2-yl]oxy}-3,5,8,10,12,14-hexamethyl-15-oxo-1-oxa-6-azacyclopentadecan-6-yl]-7-oxoheptyl}triphenylphosphonium hexafluorophosphate(V)], the “% Confluence” value is reported as 89.9%.
In the case of `CC[C@H]1OC(=O)[C@H](C)[C@@H](O[C@H]2C[C@@](C)(OC)[C@@H](O)[C@H](C)O2)[C@H](C)[C@@H](O[C@@H]2O[C@H](C)C[C@H](N(C)C)[C@H]2OC(C)=O)[C@](C)(O)C[C@@H](C)CN(C)[C@H](C)[C@@H](OC(=O)NCCCCCCCCCC[P+](c2ccccc2)(c2ccccc2)c2ccccc2)[C@]1(C)O.[Br-]` [Example 18, (2S,3R,4S,6R)-4-(dimethylamino)-2-{[(2R,3R,4R,5R,8R,10R,11R,12S,13S,14R)-2-ethyl-3,10-dihydroxy-13-{[(2R,4R,5S,6S)-5-hydroxy-4-methoxy-4,6-dimethyloxan-2-yl]oxy}-3,5,6,8,10,12,14-heptamethyl-15-oxo-4-({[10-(triphenylphosphosphoniumyl)decyl]carbamoyl}oxy)-1-oxa-6-azacyclopentadecan-11-yl]oxy}-6-methyloxan-3-yl acetate bromide], the “% Confluence” value is reported as 9.6%.
